According to US9656951B2, “Polymorphs of CDDO ethyl ester and uses thereof” (Applied Pharmaceutical Science, Inc., priority 2012, dated 2017):

Assays:
in vivo = experiment: in vivo; parameters: species or system mice; details: mouse, ip, 10 mg/kg
Protocol: Female CD-I mice were injected ip with 10 mg/kg of the three polymorphs of the compound of Formula I (CDDO ethyl) and methyl 2-cyano-3,12-dioxoIeana-1,9(11)-dien-28-oate (CDDO methyl) in DMSO-cremphor-PBS (1:1:8 weight by weight or volum by volum). Blood samples were collected at 0.083, 0.25, 0.5, 1, 2, 4, 8, and 24 hr post-dose. The levels were quantified by HPLC/MS using compound add to control blood for standard. PK results are shown at Table 3. The systemic exposure of the three polymorphs of the compound of Formula I of CDDO ethyl is higher than that of CDD) methyl. Following is the order: The glassy solid form of CDDO ethyl>Crystalline Form II of CDDO ethyl>Crystalline Form I of CDDO ethyl>CDDO Methyl

[1] = Stability determination of polymorphs (XRD) at 25° C./60% R.H. and 40° C./75% R.H.; type: physicochemical
Protocol: Other polymorphs of this invention were used similar in the study.
The glassy solid Form of the compound of Formula I, prepared as described in Example 4, was test at 25° C./60% R.H. and 40° C./75% R.H for one week.

[2] = system: NO production induced by IFN-g in mouse macrophages (RAW 264.7 cells); experiment: Measurement of NO in RAW 264.7 cells induced by IFN-γ; type: cell-based; details: RAW264.7 cells, 10 ng/ml IFN-γ, 48 hours
Protocol: Assay Protocol Procedures
1 Maintained RAW264.7 cells in DMEM with 10% FBS at 37° C., 5% CO2.
Induction of NO in RAW264.7 Cells
1. The cells were seeded at 1×10^5/well onto 96-well cell culture plate.
2. After incubation for 2 hours at 37° C. under 5% CO2, the nonadherent cells were removed by aspiration and freshly prepared complete medium with 10 ng/ml IFN-γ and dilluted compounds was added.
3. Incubated the cells at 37° C. under 5% CO2 for another 48 hours.
Measurement of NO in RAW Cells
1. Centrifuged at 1000 rpm for 5 minutes to collect supernatant medium.
2. Prepared 1 ml of a 100 μM nitrite solution by diluting the provided 0.1 M Nitrite Standard 1:1,000 in the matrix or buffer used for the experimental samples.
4. Allowed the Sulfanilamide Solution and NED Solution to equilibrate to room temperature (15-30 minutes).
5. Added 50 μl of each experimental sample to wells in duplicate.
6. Used a multichannel pipettor to dispense 50 μl of the Sulfanilamide Solution to all experimental samples and wells containing the dilution series for the Nitrite Standard.
7. […]
10. Measured absorbance within 30 minutes in a plate reader with a filter between 520 nm and 550 nm.
The inhibitory activities [as measured by the IC50 (nM) value] of Crystalline Form II of the compound of Formula I (CDDO ethyl ester) on NO production induced by IFN-g in mouse macrophages 17 are shown in FIG. 5.

[3] = 25° C./60% R.H. and 40° C./75% R.H.

Compound	AUC(0-inf) (in vivo; female, CD-I) [ng·h/mL]	AUC(0-t) (in vivo; female, CD-I) [ng·h/mL]	Cmax (in vivo; female, CD-I) [ng/mL]	half-life (in vivo; female, CD-I) [h]	tmax (in vivo; female, CD-I) [h]	AUCInf (in vivo) [ng·h/mL]	AUClast (in vivo) [ng·h/mL]	Cmax (in vivo) [ng/mL]	t1/2 (in vivo) [h]	tmax (in vivo) [h]	change of XRD on storage [1, 3]	thermodynamic stability compared to other polymorphs [1, 3]	IC50 ([2]; listed as Crystalline Form II of the compound of Formula I (CDDO ethyl ester)) [nM]	change of XRD on storage ([1]; 25° C./60% R.H. and 40° C./75% R.H for one week)	IC50 ([2]; listed as glassy solid form of the compound of Formula I (CDDO ethyl ester)) [nM]
COC(=O)[C@]12CCC(C)(C)C[C@H]1[C@H]1C(=O)C=C3[C@@]4(C)C=C(C#N)C(=O)C(C)(C)[C@@H]4CC[C@@]3(C)[C@]1(C)CC2 [CDDO Methyl Ester, methyl 2-cyano-3,12-dioxoIeana-1,9(11)-dien-28-oate, reference compound]	1970	1800	363	6.6	0.8										
ethyl 2-cyano-3,12-dioxoIeana-1,9(11)-dien-28-oate [Crystalline Form I of CDDO ethyl]						3456	3221	466	8.3	0.8					
ethyl 2-cyano-3,12-dioxoIeana-1,9(11)-dien-28-oate [Crystalline Form II of CDDO ethyl]						3840	3443	482	7.3	0.8	no significant change of XRD	most thermodynamically stable crystal form	34		
ethyl 2-cyano-3,12-dioxoIeana-1,9(11)-dien-28-oate [The glassy solid form of CDDO ethyl]						7526	4721	513	16.1	0.8				no significant change of XRD	32
